Assays:
SLE and/or pSS = experiment: Double-blinded trial of IL-2 plus HCZ regimen: tolerability; assay type: in vivo, human; details: 1 million IU IL-2 SC every other day and HCZ 200 mg Bid PO every day
lupus patients = details: systematic review, high level of evidence; cited from earlier work
Sjögren patients = details: 120 Sjögren patients, vs placebo, after 6 months of therapy; cited from earlier work

## CCN(CCO)CCCC(C)Nc1ccnc2cc(Cl)ccc12 (stereo not shown) [hydroxychloroquine]
SLE and/or pSS
  Tolerability of regimen: well tolerated
Lupus patients
  Decrease of mortality rates in lupus patients: at least 50%
  Lupus flares: decreases lupus flares
Sjögren patients
  Primary symptoms of dryness, pain, or fatigue: no significant improvement

— patent publication US11110149B2, “Method for predicting and monitoring the efficacy of low-dose IL-2 and hydroxychloroquine therapy in autoimmune diseases and its long-term use in autoimmune-related conditions” (KSL BIOMEDICAL INC., priority 2019, dated 2021)
